Measurements reported in patent publication US11021472B2, “Use of compounds comprising two or more hydrophobic domains and a hydrophilic domain comprising PEG moieties for stabilization of a cell” (Roche Diagnostics Operations, Inc., priority 2013, dated 2021).
Several values for one entry are separate records, joined by “and”; a condition that tells them apart may be missing. Equal values may be shown once. Read-outs that look alike come from different tables or passages of the source.

How the values were obtained:
[1] = tested on: white blood cells (WBCs); settings: 300,000 WBCs/well
Method: In particular, the performance of a single cholesterol-molecule and different dual-linker molecules (i.e. containing two hydrophobic moieties) was tested. In detail, immobilization of white blood cells (WBCs) on a Streptavidin-coated surface using different linker molecules was tested on a 12-well plate: 300,000 WBCs/well. This was followed by the measurement of the cell recovery rate after immobilization and washing of the cells using the Cellavista instrument (10×Nuclei Operator s9s5).

[2] = tested on: WBCs; assay: Recovery rate of cells after immobilization on streptavidin (SA) plate; type: cell-based; settings: for Remarks (staining): staining of the cells by the molecule
Method: X=hydrophobic moiety, […]=fluorescein In the following experiment, the recovery rate of cells was determined.

[3] = tested on: WBCs; assay: Labelling (staining) of cells with labelled molecules; type: cell-based
Source text: (§1) As shown in the examples, a compound for use according to the invention, wherein the compound comprises a label moiety, is contacted with a cell. As labelling is preferably done with viable or potentially viable cells, the cells are typically present in an aqueous solution, which is preferably buffered and/or contains nutrients, e.g. the cells are suspended in PBS. The labeled compound for use according to the invention may be added to the cells, e.g. in form of a solution, e.g. as aqueous solution by methods known in the art, as pipetting.

[4] = tested on: U937; assay: as above; type: cell-based
Source text: as §1

[5] = tested on: MDA-MB468; assay: as above; type: cell-based
Source text: as §1

[6] = tested on: Epithelial cells; assay: as above; type: cell-based
Source text: as §1

[7] = tested on: WBC; assay: WBC recovery rate after centrifugation (stabilization of cells); type: cell-based, human; settings: for performance in WBC recovery rate after centrifugation (ranking): Centrifugation 20 min, 10 min, 1 h; for WBC recovery rate after centrifugation: dependence on molecule concentration: Centrifugation 10 min
Method: (§2) Centrifugation characteristics: 10 min, 300×g.
as §2
The respective left, middle and right columns per assay represent different Experimenters 1, 2 and 3. […] Centrifugation characteristics: 10 min, 300×g. Molecule: Cholesteryl-TEG-Cholesteryl-TEG-(SpacerC18)7-Fluos-Biotin-TEG.
(§3) Following molecules were tested: 1234: 5′-(Cholesteryl-TEG)2-Spacer C18-dT-Biotin-TEG-3′; 1248: 3′-(Cholesteryl-TEG)2-PEG2000-Fluos-Biotin-TEG-5′ INVERS; 1254: 3′-(Cholesteryl-TEG)2-SpacerC18-Fluos-Biotin-TEG-5′ INVERS; 1255: 3′-(Myristic acid)2-PEG2000-dT-Biotin-TEG-5′ INVERS. […] Centrifugation characteristics: 20 min, 300×g. Respective left column: 10 min incubation with molecule. Respective middle column: 1 h min incubation with molecule. Respective right column: 2 h incubation with molecule.
Following molecules were tested: 1255: 3′-(Myristic acid)2-PEG2000-dT-Biotin-TEG-5′ INVERS; 1234: 5′-(Cholesteryl-TEG)2-Spacer C18-dT-Biotin-TEG-3′; 1248: 3′-(Cholesteryl-TEG)2-PEG2000-Fluos-Biotin-TEG-5′ INVERS; 1254: 3′-(Cholesteryl-TEG)2-SpacerC18-Fluos-Biotin-TEG-5′ INVERS. […] Centrifugation characteristics: 20 min, 500×g. Respective left column: 10 min incubation with molecule. Respective middle column: 1 h min incubation with molecule. Respective right column: 3 h incubation with molecule.
as §3, with “tested: 1255: 3′-(Myristic acid)2-PEG2000-dT-Biotin-TEG-5′ INVERS;” for “tested:”, “3′-(Cholesteryl-TEG)2-SpacerC18-Fluos-Biotin-TEG-5′” for “3′-(Cholesteryl-TEG)2-SpacerC18-Fluos-Biotin-TEG-5′ INVERS; 1255: 3′-(Myristic acid)2-PEG2000-dT-Biotin-TEG-5′”, “1000×g.” for “300×g.”
Stabilization is typically determined on a population of cells, e.g. 2, 10, 100 or more cells, and the respective mean viability of the cell populations are compared. […] Viability may be determined by determining cell morphology, cell viability and/or cell recovery. Methods for determining cell morphology, cell viability and cell recovery are known in the art. […] For determining cell morphology, visual inspection by microscopy may be performed. For determining cell viability, a cell viability test using WST-1 proliferation kit (RAS) may be performed.

[8] = tested on: WBC
Method: 4× determination. Row A: 200 μl PBS introduced, 1 nmol of compound added thereto respectively, mixed, incubated about 30 min, washed 2×PBS, 800 μl PBS introduced, 300.000 WBC (untreated) added. Row B: 800 μl PBS introduced, 300.000 WBC (untreated) added. Row C: 10×10^6 WBC in 1 ml with 10 nmol compound of invention 10 min incubated, 800 μl PBS/Well introduced, 300.000 treated WBC respectively. The first MTP plate washed after 30 min 2× with PBS, overlayed with Höchst and incubated for 15 min.>Cellavista (Operator s9s5) measured. The second plate was measured after 90 min. The third plate was measured after 150 min.
The experiments were performed for different incubation times, as shown below:
As starting material 5′-(Cholesteryl-TEG)2-PEG2000-Fluos-Biotin_TEG-3′ INVERS (14530 pmol/μl) (Internal Reference No.: 29.891250), and a streptavidin treated MTP (Microcoat), 12 Well plate were used.
Erythrocyte lysis was performed as follows:
EDTA-whole blood 59.423 6.400 WBC/μl (Ambulanz Roche)
lysis buffer: 100 mM NH4Cl+5 mM Hepes+0.5 mM KHCO3+0.1 mM EDTA-K
Ca 1×8 ml whole blood filled in 50 ml Falcon tube with lysis buffer, incubate at room temperature for 10 min
15 min at 250 g centrifugated, pellet resuspended by pipetting in and out in lysis buffer; filled to 50 ml with lysis buffer
15 min 250 g centrifugated, pellet resuspended with PBS, filled to 50 ml with PBS, 15 min 250 g centrifugated, filled to 50 ml with PBS
The design of the experiment on the plate is explained below (see FIG. 2):
Row A: 200 μl PBS introduced, 1 nmol of compound added thereto respectively, mixed, incubated about 30 min, washed 2× PBS, • 800 μl PBS introduced, 300.000 WBC (untreated) added.
Row B: 800 μl PBS introduced, 300.000 WBC (untreated) added.

[9] = Sample 1, compound concentration: 1 nmol/10e6 WBCs
[10] = Sample 1, first table, concentration not given
[11] = Sample 2, Compound Concentration: 100 pmol/10e6 WBCs
[12] = Sample 2, Compound Concentration: 1 nmol/10e6 WBCs
[13] = 300×g, 2 h incubation with molecule
[14] = 500×g, 3 h incubation with molecule

## 5′-(Cholesterol-TEG)1-Doubler-dT-Biotin-3′ [29.891272]
[1]; [9]
  cell count per well: 199973 and 220701 and 228481
[1]; [10]
  cell count per well: 147132 and 179643 and 181620
[1]; [11]
  Mean (cell count): 186316.33
  cell count per well: 161504 and 201424 and 196021
[1]; [12]
  Mean (cell count): 247418.33
  cell count per well: 241232 and 254894 and 246129

## 5′-Myristic acid-SpacerC9-Myristic acid-PEG2000-Fluos-BiotinTEG-3′ [BMO 29.891197]
[2]
  Remarks (staining): weak

## 5′-Cholesteryl-TEG-PEG2000-Fluos-3′ [BMO 29.891132]
[3]
  staining of cells by labelled molecule: ✓ not all
[4]
  staining of cells by labelled molecule: ✓
[5]
  staining of cells by labelled molecule: ✓
[6]
  staining of cells by labelled molecule: ✓

## 5′-(Cholesteryl-TEG)2-Spacer C18-dT-Biotin-TEG-3′ [compound 1234]
[7]; [13]
  performance in WBC recovery rate after centrifugation (ranking): best performance
[7]; [14]
  performance in WBC recovery rate after centrifugation (ranking): best performance

## 5′-Myristic acid-Myristic acid-SpacerC18-Fluos-BiotinTEG-3′ [BMO 29.891213]
[2]
  Remarks (staining): strong

## 5′-Myristic acid-Myristic acid-(SpacerC18)7-Fluos-BiotinTEG-3′ [BMO 29.891214]
[2]
  Remarks (staining): strong

## 5′-CholesterylTEG-CholesterylTEG-PEG2000-Fluos-BiotinTEG-3′ [BMO 29.891180]
[2]
  Remarks (staining): strong

## 5′-(Cholesteryl-TEG)2-PEG2000-Fluos-Biotin_TEG-3′ INVERS [29.891250]
[8]; 30 min, WBC treated
  MW (mean WBC count; target: 300.000 WBC): 231829.75
[8]; 30 min, WBC treated: molecule + cells
  WBC recovery rate [%] (Mean %): 77.28%
[8]; 30 min, Well treated
  MW (mean WBC count; target: 300.000 WBC): 64909
[8]; 30 min, well treated: molecule bound to surface
  WBC recovery rate [%] (Mean %): 21.64%
[8]; 90 min, WBC treated
  MW (mean WBC count; target: 300.000 WBC): 249346.25
[8]; 90 min, WBC treated: molecule + cells, listed as molecule useful in methods of invention
  WBC recovery rate [%] (Mean %): 83.12% and 83.1%
[8]; 90 min, Well treated
  MW (mean WBC count; target: 300.000 WBC): 142865
[8]; 90 min, well treated: molecule bound to surface, listed as molecule useful in methods of invention
  WBC recovery rate [%] (Mean %): 47.62% and 47.6%
[8]; 120 min, WBC treated
  MW (mean WBC count; target: 300.000 WBC): 258692.75
[8]; 120 min, WBC treated: molecule + cells
  WBC recovery rate [%] (Mean %): 86.23%
[8]; 120 min, Well treated
  MW (mean WBC count; target: 300.000 WBC): 171062.75
[8]; 120 min, well treated: molecule bound to surface
  WBC recovery rate [%] (Mean %): 57.02%

## Biotin-PEG-Lysin-(C18)2 [HH1750]
[7]; 300×g
  WBC recovery rate after centrifugation: dependence on molecule concentration: The higher the concentration of the molecule, the higher the cell recovery rate after centrifugation

## 3′-(Myristic acid)2-PEG2000-dT-Biotin-TEG-5′ INVERS [compound 1255]
[7]; [13]
  performance in WBC recovery rate after centrifugation (ranking): followed by compound 1255 and 1254
[7]; [14]
  performance in WBC recovery rate after centrifugation (ranking): followed by molecule 1255 and 1254

## Biotin-PEG-Lysin-(C18)2 [HH1755]
[7]; 300×g
  WBC recovery rate after centrifugation: dependence on molecule concentration: The higher the concentration of the molecule, the higher the cell recovery rate after centrifugation

## 5′-(Cholesteryl-TEG)2-Spacer C12-dT-Biotin_TEG-3′ INVERS [29.891253]
[1]; [9]
  cell count per well: 218861 and 221471 and 208802
[1]; [10]
  cell count per well: 105061 and 128195 and 139678
[1]; [11]
  Mean (cell count): 187757.67
  cell count per well: 178919 and 197130 and 187224
[1]; [12]
  Mean (cell count): 237052.33
  cell count per well: 239105 and 240632 and 231420

## 5′-(Cholesteryl-TEG)2-Spacer C18-Fluos-Biotin_TEG-3′ INVERS [29.891254]
[1]; [9]
  cell count per well: 244649 and 234262 and 260760
[1]; [10]
  cell count per well: 157660 and 190148 and 170850
[1]; [11]
  Mean (cell count): 197067.00
  cell count per well: 205917 and 185100 and 200184
[1]; [12]
  Mean (cell count): 245376.00
  cell count per well: 247428 and 244396 and 244304
[7]; [13]
  performance in WBC recovery rate after centrifugation (ranking): followed by compound 1255 and 1254
[7]; [14]
  performance in WBC recovery rate after centrifugation (ranking): followed by molecule 1255 and 1254

## 5′-Myristic acid-Myristic acid-PEG2000-Fluos-BiotinTEG-3′ [BMO 29.891194]
[2]
  Remarks (staining): weak and stronger

## CCCCCCCCCCCCCCCCCCCCCCN1/C(=C/C=C/c2oc3ccccc3[n+]2CCC)Oc2ccccc21.[I-] [PKH2]
[3]
  staining of cells by labelled molecule: ✓
[6]
  staining of cells by labelled molecule: ✓ not all

## 5′-alphaTocopherolTEG-PEG2000-Fluos-3′ [BMO 29.891131]
[3]
  staining of cells by labelled molecule: ✓ not all
[4]
  staining of cells by labelled molecule: ✓
[5]
  staining of cells by labelled molecule: ✓
[6]
  staining of cells by labelled molecule: ✓

## 5′-CholesterylTEG-CholesterylTEG-(SpacerC18)7-Fluos-BiotinTEG-3′ [BMO 29.891222]
[7]; 300×g
  WBC recovery rate after centrifugation: dependence on molecule concentration: the higher the molecule concentration, the higher the cell recovery rate after centrifugation
[7]; 300×g, listed as A
  WBC recovery rate after centrifugation: dependence on molecule concentration: The higher the molecule concentration, the higher the cell recovery rate after centrifugation
[7]; Experimenters 1, 2 and 3, centrifugation 10 min, 300×g
  cell stabilization: dependence on the experimenter: independent on the experimenter

## Sulfo-JA133-phenylboronic acid [BMO: 15.000078]
[3]
  staining of cells by labelled molecule: ✓ not all
[6]
  staining of cells by labelled molecule: ✓

## Biotin-PEG-Lys-(C14)2 [15.260268]
[2]; 1.77 nmol/10e6 Cells
  Recovery Rate: 85.72%

## Biotin-PEG-Lysin-(C18)2 [HH1749]
[7]; 300×g
  WBC recovery rate after centrifugation: dependence on molecule concentration: The higher the concentration of the molecule, the higher the cell recovery rate after centrifugation
